These results are taken from patent publication US11382956B2, “Amylin analogues” (Zealand Pharma A/S, priority 2016, dated 2022).

The conditions of series [1]: cited from earlier work.
For series [2] the following is noted: WO99/34764; cited from earlier work.
Series [3] in a line: Assessment of chemical stability in 40 mM buffers at 40° C. (RP-HPLC). In kind it is physicochemical. The conditions noted are these: 1 mg/mL; for % degradation after 72 h at 40° C. pH4 acetate: acetate buffer pH 4, 72 h; for % degradation after 14 days at 40° C. pH4 acetate: acetate buffer pH 4, 14 days; for % degradation after 72 h at 40° C. pH6 phosphate: phosphate buffer pH 6, 72 h; for % degradation after 14 days at 40° C. pH6 phosphate: phosphate buffer pH 6, 14 days; for % degradation after 72 h at 40° C. pH7 phosphate: phosphate buffer pH 7, 72 h; for % degradation after 14 days at 40° C. pH7 phosphate: phosphate buffer pH 7, 14 days. The procedure, abridged:
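Peptides at 1 mg/mL in 40 mM acetate pH 4 or phosphate pH 6 and 7 were held at 40° C for 3 and 14 days. Main-peak area-% by C8 RP-HPLC, UV 220 nm; % degradation = change in main-peak area-% versus t=0.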

The nature of series [4]: Pharmacokinetic (PK) profiling in rats. The conditions noted are these: male, Sprague Dawley, plasma; rat, single sc bolus 30 nmol/kg; read-out: in vivo half life t1/2 (plasma terminal elimination half-life) (converted). The protocol:
Sprague Dawley male rats were given a single subcutaneous (sc) bolus of each peptide to be tested, as specified below.
30 nmol/kg doses of compound were administered. Blood samples were drawn from the tail vein prior to dosing and at 24 and 96 hours after dosing. The rats were euthanized immediately after the last blood sampling by concussion and cervical dislocation.
The dosing vehicle used for each test peptide was a mannitol-containing histidine buffer (pH 7.0). Plasma samples were analyzed after precipitation with ethanol by liquid chromatography mass spectrometry (LC-MS/MS). Mean plasma concentrations were used for calculation of the pharmacokinetic parameters.
Plasma terminal elimination half-life (t1/2) was determined as In(2)/λz, where λz is the magnitude of the slope of the log linear regression of the log concentration versus time profile during the terminal phase.

Series [5] is described as follows: Effect on acute food intake and body weight in normal Sprague Dawley rats. The conditions noted are these: Dose: 30 nmol/kg sc, vehicle-corrected. It is filed as in vivo, Sprague Dawley (SD) rats.
The target in series [6] is T1, recombinant human calcitonin receptor (hCT-R) (Homo sapiens, UniProt P30988).
T1 construct: host or cells: human astrocytoma cell line 1321N1
T1 sequence (P30988 25-474): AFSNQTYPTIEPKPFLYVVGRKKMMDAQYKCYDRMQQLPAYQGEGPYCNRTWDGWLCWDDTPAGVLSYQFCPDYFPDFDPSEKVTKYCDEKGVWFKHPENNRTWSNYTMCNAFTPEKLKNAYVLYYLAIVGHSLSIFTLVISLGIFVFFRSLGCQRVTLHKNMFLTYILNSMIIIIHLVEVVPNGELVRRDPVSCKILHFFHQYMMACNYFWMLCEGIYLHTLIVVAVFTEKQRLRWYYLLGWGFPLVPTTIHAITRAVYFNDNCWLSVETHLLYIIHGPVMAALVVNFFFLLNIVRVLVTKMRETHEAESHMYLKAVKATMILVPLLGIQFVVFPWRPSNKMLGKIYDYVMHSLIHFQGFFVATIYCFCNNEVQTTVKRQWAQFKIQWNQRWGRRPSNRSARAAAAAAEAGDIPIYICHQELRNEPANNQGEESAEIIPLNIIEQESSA
As to the kind of experiment: hCT-R cAMP assay (AlphaScreen) in 1321N1 cells. In kind it is cell-based. The conditions noted are these: cAMP formation, 45 min stimulation. The procedure, abridged: (§1)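 1321N1 astrocytoma cells expressing recombinant human calcitonin receptor alone or with RAMP3 (AMY3) stimulated 45 min at room temperature with peptide in IBMX-containing buffer. cAMP quantified by AlphaScreen after 1 h bead incubation; EC50 fitted from at least 7 concentrations.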
A general note: Changes in cAMP serve as a functional read-out for many G protein-coupled receptors.

Series [7] is described as follows: Assessment of physical stability: fibril formation by Thioflavin T fluorescence. To be noted: 1 mg/mL peptide; for Fibrillation (in buffer) pH4 acetate: 50 mM acetate buffer pH 4.0, 96 hours at 40° C.; for Fibrillation (in buffer) pH7 histidine: 50 mM histidine buffer pH 7.0, 96 hours at 40° C.; for Fibrillation (in buffer) pH7 phosphate: 50 mM phosphate buffer pH 7.0, 96 hours at 40° C. Also noted: key: FND = fibrillation not detected; FD = fibrillation detected. It is filed as physicochemical. The procedure, abridged:
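Test peptide at 1 mg/mL with 40 μM ThT in 50 mM phosphate pH 7.0, 50 mM histidine pH 7.0, or 50 mM acetate pH 4.0, in triplicate. Fluorescence read every 10 min after 300 s agitation for 96 hours at 40° C; significant intensity rise scored as fibrillation detected (FD).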

Series [8] has as its target T2, recombinant human amylin 3 receptor (hAMYR3) (Homo sapiens, UniProt O60896+P30988).
T2 construct: host or cells: human astrocytoma cell line 1321N1
T2 sequence (P30988 25-474): T1 sequence (P30988 25-474)
T2 sequence (O60896 24-148 partner): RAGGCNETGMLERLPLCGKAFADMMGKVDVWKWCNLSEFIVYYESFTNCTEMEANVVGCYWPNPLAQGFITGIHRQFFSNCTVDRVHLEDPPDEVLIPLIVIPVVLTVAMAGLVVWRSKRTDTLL
Description: hAMYR3 cAMP assay (AlphaScreen) in 1321N1 cells. The conditions noted are these: cAMP formation, 45 min stimulation. It is filed as cell-based. The essentials:
as §1

Numbered stars: 1 amine (or outer) side, 2 acyl side, 3 side chain; on linkers, the order of the positions; unused ones are H or OH. Bridge positions count the residues as written; N and C are the ends. Square brackets hold non-standard residues; d marks the D form. Peptide text beside a SMILES is read from it. * marks the point of attachment. C20 diacid = O=C(O)CCCCCCCCCCCCCCCCCCC(=O)*; γGlu = O=C(O)[C@H](CCC(=O)[*:2])N[*:1]; Hyp = O=C(O)[C@@H]1C[C@@H](O)CN1; NMeI = CC[C@H](C)[C@H](NC)C(=O)O; Aad = N[C@@H](CCCC(=O)O)C(=O)O; Sar = CNCC(=O)O

For the compound `CC[C@H](C)[C@H](NC(=O)[C@@H]1CCCN1C(=O)CNC(=O)[C@H](Cc1ccccc1)NC(=O)[C@H](CC(N)=O)NC(=O)[C@H](CC(N)=O)NC(=O)[C@H](CO)NC(=O)[C@H](CO)NC(=O)[C@H](Cc1c[nH]cn1)NC(=O)[C@@H](NC(=O)[C@H](CC(C)C)NC(=O)[C@H](Cc1ccccc1)NC(=O)[C@H](CC(N)=O)NC(=O)[C@H](C)NC(=O)[C@H](CC(C)C)NC(=O)[C@H](CCCNC(=N)N)NC(=O)[C@H](CCC(N)=O)NC(=O)[C@@H](NC(=O)[C@H](C)NC(=O)[C@@H]1CSSC[C@H](NC(=O)[C@@H](N)CCCCN)C(=O)N[C@@H](CC(N)=O)C(=O)N[C@@H]([C@@H](C)O)C(=O)N[C@@H](C)C(=O)N[C@@H]([C@@H](C)O)C(=O)N1)[C@@H](C)O)C(C)C)C(=O)N[C@@H](CC(C)C)C(=O)N1CCC[C@H]1C(=O)N1CCC[C@H]1C(=O)N[C@H](C(=O)N[C@@H](CC(N)=O)C(=O)N[C@H](C(=O)NCC(=O)N[C@@H](CO)C(=O)N[C@@H](CC(N)=O)C(=O)N[C@H](C(=O)N[C@@H](Cc1ccc(O)cc1)C(N)=O)[C@@H](C)O)C(C)C)[C@@H](C)O` [pramlintide], the “effect on body weight in human trials” value in series [1] was “reduce body weight or reduce weight gain”.

^2,7cyclo-[2Asp,7Lys]-h-amylin: the “potency compared with other amylin analogues and human amylin” value in series [2] is “considerably lower potency”.

Turning to `CC[C@H](C)[C@@H](C(=O)N[C@@H](CC(C)C)C(=O)N[C@@H](CO)C(=O)N[C@@H](CO)C(=O)N[C@H](C(=O)N[C@@H](CCC(=O)O)C(=O)N[C@H](C(=O)NCC(=O)N[C@@H](CO)C(=O)N[C@@H](CC(N)=O)C(=O)N[C@H](C(=O)N1C[C@H](O)C[C@H]1C(N)=O)[C@@H](C)O)C(C)C)[C@@H](C)O)N(C)C(=O)[C@H](C)NC(=O)CN(C)C(=O)[C@H](Cc1ccccc1)NC(=O)[C@H](CO)NC(=O)[C@H](CO)NC(=O)[C@H](CCCNC(=N)N)NC(=O)[C@H](CCC(N)=O)NC(=O)[C@H](CC(C)C)NC(=O)[C@H](Cc1ccccc1)NC(=O)[C@H](Cc1c[nH]cn1)NC(=O)[C@H](C)NC(=O)[C@H](CC(C)C)NC(=O)[C@H](CCCNC(=N)N)NC(=O)[C@H](CCC(=O)O)NC(=O)[C@@H](NC(=O)[C@H](C)NC(=O)[C@@H]1CCCCNC(=O)C[C@H](NC(=O)[C@H](CCCNC(=N)N)NC(=O)CC[C@H](NC(=O)CCCCCCCCCCCCCCCCCCC(=O)O)C(=O)O)C(=O)NCC(=O)N[C@@H]([C@@H](C)O)C(=O)N[C@@H](C)C(=O)N[C@@H]([C@@H](C)O)C(=O)N1)[C@@H](C)O` [Compound 18, [19CD]-isoGlu-RD()GTATK()ATERLAHFLQRSSF-Gly(Me)-A-Ile(Me)-LSSTEVGSNT-Hyp-NH2] ({C20 diacid-γGlu}-RDGTATKATERLAHFLQRSSF[Sar]A[NMeI]LSSTEVGSNT[Hyp]-NH2; lactam 2-7), in series [3], the “% degradation after 72 h at 40° C. pH4 acetate” value is reported as less than 1%, the “% degradation after 14 days at 40° C. pH4 acetate” value was less than 1%, the “% degradation after 72 h at 40° C. pH6 phosphate” value is reported as less than 1% and the “% degradation after 14 days at 40° C. pH6 phosphate” value worked out at 1.0%. Also, in series [3], the “% degradation after 72 h at 40° C. pH7 phosphate” value was less than 1% and the “% degradation after 14 days at 40° C. pH7 phosphate” value is listed as 1.9%. In addition, the half-life in series [4] was 30.1 h. Also, in series [5], the “Body weight reduction in % at 48 h” value stood at 10% and the “Food intake reduction in % at 48 h” value came out at 58%. Also, in series [6], the EC50 – broadly, the concentration at which the effect is half-maximal – was found to be 0.085 nM. Besides, in series [7], the “Fibrillation (in buffer) pH4 acetate” value is on record as “FND”, the “Fibrillation (in buffer) pH7 histidine” value is “FND” and the “Fibrillation (in buffer) pH7 phosphate” value is reported as “FND”. Besides, in series [8], the EC50 worked out at 0.031 nM.

On to `CC[C@H](C)[C@@H](C(=O)N[C@@H](CC(C)C)C(=O)N[C@@H](CO)C(=O)N[C@@H](CO)C(=O)N[C@H](C(=O)N[C@@H](CCC(=O)O)C(=O)N[C@H](C(=O)NCC(=O)N[C@@H](CO)C(=O)N[C@@H](CC(N)=O)C(=O)N[C@H](C(=O)N1C[C@H](O)C[C@H]1C(N)=O)[C@@H](C)O)C(C)C)[C@@H](C)O)N(C)C(=O)[C@H](C)NC(=O)CN(C)C(=O)[C@H](Cc1ccccc1)NC(=O)[C@H](CO)NC(=O)[C@H](CO)NC(=O)[C@H](CCCNC(=N)N)NC(=O)[C@H](CCC(N)=O)NC(=O)[C@H](CC(C)C)NC(=O)[C@H](Cc1ccccc1)NC(=O)[C@H](CCCC(=O)O)NC(=O)[C@H](C)NC(=O)[C@H](CC(C)C)NC(=O)[C@H](CCCNC(=N)N)NC(=O)[C@H](CCC(=O)O)NC(=O)[C@@H](NC(=O)[C@H](C)NC(=O)[C@@H]1CCCCNC(=O)C[C@H](NC(=O)[C@H](CCCNC(=N)N)NC(=O)CC[C@H](NC(=O)CCCCCCCCCCCCCCCCCCC(=O)O)C(=O)O)C(=O)NCC(=O)N[C@@H]([C@@H](C)O)C(=O)N[C@@H](C)C(=O)N[C@@H]([C@@H](C)O)C(=O)N1)[C@@H](C)O` [Compound 35, [19CD]-isoGlu-RD()GTATK()ATERLA-Aad-FLQRSSF-Gly(Me)-A-Ile(Me)-LSSTEVGSNT-Hyp-NH2] ({C20 diacid-γGlu}-RDGTATKATERLA[Aad]FLQRSSF[Sar]A[NMeI]LSSTEVGSNT[Hyp]-NH2; lactam 2-7), for which, in series [3], the “% degradation after 72 h at 40° C. pH4 acetate” value was less than 1%, the “% degradation after 14 days at 40° C. pH4 acetate” value stood at 2%, the “% degradation after 72 h at 40° C. pH6 phosphate” value is less than 1% and the “% degradation after 14 days at 40° C. pH6 phosphate” value is on record as less than 1%. In addition, in series [3], the “% degradation after 72 h at 40° C. pH7 phosphate” value came to 1.4% and the “% degradation after 14 days at 40° C. pH7 phosphate” value is less than 1%. Besides, in series [4], the half-life is 36.1 h. For the same compound, in series [5], the “Body weight reduction in % at 48 h” value turned out to be 12% and the “Food intake reduction in % at 48 h” value is on record as 72%. The EC50 in series [6] is 0.066 nM. Moreover, in series [7], the “Fibrillation (in buffer) pH4 acetate” value is given as “FND”, the “Fibrillation (in buffer) pH7 histidine” value is recorded as “FND” and the “Fibrillation (in buffer) pH7 phosphate” value was “FND”. Also, in series [8], the EC50 turned out to be 0.028 nM.
